# Experimental data as given in ChEMBL document CHEMBL1275492, “In vitro activity of ceftobiprole against pathogens from two phase 3 clinical trials of complicated skin and skin structure infections” (2008).
# How the values were obtained:
# Type in all cases: functional
# Pseudomonas aeruginosa = assay: Antibacterial activity against Pseudomonas aeruginosa obtained from complicated skin and skin structure infections by agar dilution method
# Acinetobacter baumannii = assay: Antibacterial activity against Acinetobacter baumannii obtained from complicated skin and skin structure infections by agar dilution method
# Pseudomonas fluorescens = assay: Antibacterial activity against Pseudomonas fluorescens obtained from complicated skin and skin structure infections by agar dilution method
# [1] = system: Stenotrophomonas maltophilia; assay: Antibacterial activity against Stenotrophomonas maltophilia obtained from complicated skin and skin structure infections by agar dilution method
# Bacteroides fragilis = assay: Antibacterial activity against Bacteroides fragilis obtained from complicated skin and skin structure infections by agar dilution method
# Prevotella = assay: Antibacterial activity against Prevotella spp. obtained from complicated skin and skin structure infections by agar dilution method
# Veillonella = assay: Antibacterial activity against Veillonella spp. obtained from complicated skin and skin structure infections by agar dilution method
# Klebsiella aerogenes = assay: Antibacterial activity against Enterobacter aerogenes obtained from complicated skin and skin structure infections by agar dilution method
# Klebsiella oxytoca = assay: Antibacterial activity against Klebsiella oxytoca obtained from complicated skin and skin structure infections by agar dilution method
# Staphylococcus aureus [2] = assay: Antibacterial activity against Staphylococcus aureus obtained from complicated skin and skin structure infections by agar dilution method
# Staphylococcus aureus [3] = assay: Antibacterial activity against methicillin resistant Staphylococcus aureus obtained from complicated skin and skin structure infections by agar dilution method
# Staphylococcus aureus [4] = assay: Antibacterial activity against methicillin susceptible Staphylococcus aureus obtained from complicated skin and skin structure infections by agar dilution method
# [5] = system: Staphylococcus epidermidis; assay: Antibacterial activity against coagulase-negative Staphylococcus epidermidis obtained from complicated skin and skin structure infections by agar dilution method
# [6] = system: Staphylococcus haemolyticus; assay: Antibacterial activity against coagulase-negative Staphylococcus haemolyticus obtained from complicated skin and skin structure infections by agar dilution method
# [7] = system: Staphylococcus lugdunensis; assay: Antibacterial activity against coagulase-negative Staphylococcus lugdunensis obtained from complicated skin and skin structure infections by agar dilution method
# Staphylococcus hominis = assay: Antibacterial activity against coagulase-negative Staphylococcus hominis obtained from complicated skin and skin structure infections by agar dilution method
# Staphylococcus capitis = assay: Antibacterial activity against coagulase-negative Staphylococcus capitis obtained from complicated skin and skin structure infections by agar dilution method
# [8] = system: Staphylococcus saprophyticus; assay: Antibacterial activity against coagulase-negative Staphylococcus saprophyticus obtained from complicated skin and skin structure infections by agar dilution method
# Staphylococcus cohnii = assay: Antibacterial activity against coagulase-negative Staphylococcus cohnii obtained from complicated skin and skin structure infections by agar dilution method
# Mammaliicoccus sciuri = assay: Antibacterial activity against coagulase-negative Staphylococcus sciuri obtained from complicated skin and skin structure infections by agar dilution method
# Staphylococcus warneri = assay: Antibacterial activity against coagulase-negative Staphylococcus warneri obtained from complicated skin and skin structure infections by agar dilution method
# [9] = system: Staphylococcus lugdunensis; assay: Antibacterial activity against methicillin-resistant, oxacillin-susceptible, coagulase-negative, mecA-positive Staphylococcus lugdunensis obtained from complicated skin and skin structure infections by agar dilution method
# Staphylococcus = assay: Antibacterial activity against methicillin-susceptible, coagulase-negative Staphylococcus obtained from complicated skin and skin structure infections by agar dilution method
# Enterococcus faecalis = assay: Antibacterial activity against Enterococcus faecalis obtained from complicated skin and skin structure infections by agar dilution method
# Enterococcus faecium = assay: Antibacterial activity against Enterococcus faecium obtained from complicated skin and skin structure infections by agar dilution method
# Streptococcus agalactiae = assay: Antibacterial activity against Streptococcus agalactiae obtained from complicated skin and skin structure infections by agar dilution method
# Streptococcus pyogenes = assay: Antibacterial activity against Streptococcus pyogenes obtained from complicated skin and skin structure infections by agar dilution method
# [10] = Antibacterial activity against Streptococcus sp. 'group C' obtained from complicated skin and skin structure infections by agar dilution method
# [11] = Antibacterial activity against Streptococcus sp. 'group G' obtained from complicated skin and skin structure infections by agar dilution method
# [12] = system: Streptococcus constellatus; assay: Antibacterial activity against Streptococcus constellatus obtained from complicated skin and skin structure infections by agar dilution method
# Streptococcus mitis = assay: Antibacterial activity against Streptococcus mitis obtained from complicated skin and skin structure infections by agar dilution method
# [13] = system: Staphylococcus intermedius; assay: Antibacterial activity against Staphylococcus intermedius obtained from complicated skin and skin structure infections by agar dilution method
# Aerococcus viridans = assay: Antibacterial activity against Aerococcus viridans obtained from complicated skin and skin structure infections by agar dilution method
# Bacillus = assay: Antibacterial activity against Bacillus spp. obtained from complicated skin and skin structure infections by agar dilution method
# Gemella morbillorum = assay: Antibacterial activity against Gemella morbillorum obtained from complicated skin and skin structure infections […]
# Gemella = assay: Antibacterial activity against Gemella spp. obtained from complicated skin and skin structure infections by agar dilution method
# Lactococcus lactis = assay: Antibacterial activity against Lactococcus lactis obtained from complicated skin and skin structure infections by agar dilution method
# Micrococcus = assay: Antibacterial activity against Micrococcus spp. obtained from complicated skin and skin structure infections by agar dilution method
# Citrobacter braakii = assay: Antibacterial activity against Citrobacter braakii obtained from complicated skin and skin structure infections by agar dilution method
# Citrobacter freundii = assay: Antibacterial activity against Citrobacter freundii obtained from complicated skin and skin structure infections by agar dilution method
# Enterobacter amnigenus = assay: Antibacterial activity against Enterobacter amnigenus obtained from complicated skin and skin structure infections by agar dilution method; settings: Lelliottia amnigena
# Enterobacter cloacae = assay: Antibacterial activity against Enterobacter cloacae obtained from complicated skin and skin structure infections by agar dilution method
# Escherichia coli = assay: Antibacterial activity against Escherichia coli obtained from complicated skin and skin structure infections by agar dilution method
# Klebsiella pneumoniae = assay: Antibacterial activity against Klebsiella pneumoniae obtained from complicated skin and skin structure infections by agar dilution method
# Morganella morganii = assay: Antibacterial activity against Morganella morganii obtained from complicated skin and skin structure infections by agar dilution method
# Proteus mirabilis = assay: Antibacterial activity against Proteus mirabilis obtained from complicated skin and skin structure infections by agar dilution method
# Proteus penneri = assay: Antibacterial activity against Proteus penneri obtained from complicated skin and skin structure infections by agar dilution method
# Proteus vulgaris = assay: Antibacterial activity against Proteus vulgaris obtained from complicated skin and skin structure infections by agar dilution method
# Providencia stuartii = assay: Antibacterial activity against Providencia stuartii obtained from complicated skin and skin structure infections by agar dilution method
# Salmonella = assay: Antibacterial activity against Salmonella spp. obtained from complicated skin and skin structure infections by agar dilution method
# Serratia marcescens = assay: Antibacterial activity against Serratia marcescens obtained from complicated skin and skin structure infections by agar dilution method
structure (smiles),measurement,setting,value
Nc1nc(/C(=N/O)C(=O)N[C@@H]2C(=O)N3C(C(=O)O)=C(/C=C4\CCN([C@@H]5CCNC5)C4=O)CS[C@H]23)ns1 [CEFTOBIPROLE],MIC50,Pseudomonas aeruginosa,4 µg/mL
same,MIC90,Pseudomonas aeruginosa,> 64 µg/mL
same,MIC50,Acinetobacter baumannii,> 64 µg/mL
same,MIC90,Acinetobacter baumannii,> 64 µg/mL
same,MIC50,Pseudomonas fluorescens,> 64 µg/mL
same,MIC90,Pseudomonas fluorescens,> 64 µg/mL
same,MIC50,[1],> 64 µg/mL
same,MIC90,[1],> 64 µg/mL
same,MIC,Bacteroides fragilis,≤ 0.03 µg/mL
same,MIC,Prevotella,≤ 0.03 µg/mL
same,MIC,Veillonella,≤ 0.03 µg/mL
same,MIC50,Klebsiella aerogenes,0.06 µg/mL
same,MIC90,Klebsiella aerogenes,32 µg/mL
same,MIC50,Klebsiella oxytoca,0.06 µg/mL
same,MIC90,Klebsiella oxytoca,32 µg/mL
same,MIC50,Staphylococcus aureus [2],0.5 µg/mL
same,MIC90,Staphylococcus aureus [2],1 µg/mL
same,MIC50,Staphylococcus aureus [3],0.5 µg/mL
same,MIC90,Staphylococcus aureus [3],2 µg/mL
same,MIC50,Staphylococcus aureus [4],0.25 µg/mL
same,MIC90,Staphylococcus aureus [4],0.5 µg/mL
same,MIC50,[5],0.5 µg/mL
same,MIC90,[5],1 µg/mL
same,MIC50,[6],0.5 µg/mL
same,MIC90,[6],1 µg/mL
same,MIC50,[7],0.5 µg/mL
same,MIC90,[7],1 µg/mL
same,MIC50,Staphylococcus hominis,0.5 µg/mL
same,MIC90,Staphylococcus hominis,1 µg/mL
same,MIC50,Staphylococcus capitis,0.5 µg/mL
same,MIC90,Staphylococcus capitis,1 µg/mL
same,MIC50,[8],0.5 µg/mL
same,MIC90,[8],1 µg/mL
same,MIC50,Staphylococcus cohnii,0.5 µg/mL
same,MIC90,Staphylococcus cohnii,1 µg/mL
same,MIC50,Mammaliicoccus sciuri,0.5 µg/mL
same,MIC90,Mammaliicoccus sciuri,1 µg/mL
same,MIC50,Staphylococcus warneri,0.5 µg/mL
same,MIC90,Staphylococcus warneri,1 µg/mL
same,MIC50,[9],0.5 µg/mL
same,MIC90,[9],2 µg/mL
same,MIC50,Staphylococcus,0.25 µg/mL
same,MIC90,Staphylococcus,0.5 µg/mL
same,MIC50,Enterococcus faecalis,0.5 µg/mL
same,MIC90,Enterococcus faecalis,0.5 µg/mL
same,MIC50,Enterococcus faecium,> 64 µg/mL
same,MIC50,Streptococcus agalactiae,0.06 µg/mL
same,MIC90,Streptococcus agalactiae,0.12 µg/mL
same,MIC,Streptococcus pyogenes,0.008 µg/mL
same,MIC50,Streptococcus pyogenes,0.008 µg/mL
same,MIC90,Streptococcus pyogenes,0.015 µg/mL
same,MIC50,[10],0.06 µg/mL
same,MIC90,[10],0.12 µg/mL
same,MIC50,[11],0.008 µg/mL
same,MIC90,[11],0.06 µg/mL
same,MIC50,[12],0.06 µg/mL
same,MIC90,[12],0.12 µg/mL
same,MIC50,Streptococcus mitis,0.06 µg/mL
same,MIC90,Streptococcus mitis,0.12 µg/mL
same,MIC50,[13],0.06 µg/mL
same,MIC90,[13],0.12 µg/mL
same,MIC50,Aerococcus viridans,0.12 µg/mL
same,MIC90,Aerococcus viridans,0.25 µg/mL
same,MIC50,Bacillus,0.12 µg/mL
same,MIC90,Bacillus,0.25 µg/mL
same,MIC50,Gemella morbillorum,0.12 µg/mL
same,MIC90,Gemella morbillorum,0.25 µg/mL
same,MIC50,Gemella,0.12 µg/mL
same,MIC90,Gemella,0.25 µg/mL
same,MIC50,Lactococcus lactis,0.12 µg/mL
same,MIC90,Lactococcus lactis,0.25 µg/mL
same,MIC50,Micrococcus,0.12 µg/mL
same,MIC90,Micrococcus,0.25 µg/mL
same,MIC50,Citrobacter braakii,0.06 µg/mL
same,MIC90,Citrobacter braakii,32 µg/mL
same,MIC50,Citrobacter freundii,0.06 µg/mL
same,MIC90,Citrobacter freundii,32 µg/mL
same,MIC50,Enterobacter amnigenus,0.06 µg/mL
same,MIC90,Enterobacter amnigenus,32 µg/mL
same,MIC50,Enterobacter cloacae,0.06 µg/mL
same,MIC90,Enterobacter cloacae,> 64 µg/mL
same,MIC50,Escherichia coli,0.06 µg/mL
same,MIC90,Escherichia coli,0.12 µg/mL
same,MIC50,Klebsiella pneumoniae,0.06 µg/mL
same,MIC90,Klebsiella pneumoniae,32 µg/mL
same,MIC50,Morganella morganii,0.12 µg/mL
same,MIC90,Morganella morganii,64 µg/mL
same,MIC50,Proteus mirabilis,0.03 µg/mL
same,MIC90,Proteus mirabilis,0.12 µg/mL
same,MIC50,Proteus penneri,0.06 µg/mL
same,MIC90,Proteus penneri,32 µg/mL
same,MIC50,Proteus vulgaris,0.06 µg/mL
same,MIC90,Proteus vulgaris,32 µg/mL
same,MIC50,Providencia stuartii,0.06 µg/mL
same,MIC90,Providencia stuartii,32 µg/mL
same,MIC50,Salmonella,0.06 µg/mL
same,MIC90,Salmonella,32 µg/mL
same,MIC50,Serratia marcescens,0.06 µg/mL
same,MIC90,Serratia marcescens,32 µg/mL
